Test results: US7960420B2, “Diazonamide analogs with improved solubility” (Joyant Pharmaceuticals, Inc, priority 2007, dated 2011)
Like-named read-outs stand apart in the source and are kept apart here.

What was measured:
[1] = aqueous solubility in de-ionized water; assay type: physicochemical; details: for solubility: thermodynamic from solid
Method: Unless otherwise indicated, the solubility measurements described herein are determined by dissolving the test compound in de-ionized (DI) water at 25° C. […] In particular, the compounds provided by Examples 22, 23, 28, 30, 31, 37 and 38 are water soluble.

[2] = tested on: HCC461 human NSCLC xenograft; experiment: HCC461 human NSCLC xenograft tumor model in mice; assay type: in vivo; details: FIG. 1; 20 mg/kg per dose; injections at days 7, 9, 11, 14, 16 and 18 post tumor cell injection
Method: Compound 22 (prepared according to Example 22) and Compound 28 (prepared according to Example 28) were tested in a HCC461 human NSCLC xenograft tumor model in mice.
Preparation of Tumor Cells • 1. Hcc461 cells were cultured in complete RPMI medium and excluded any contamination • 2. When cells are 70-80% confluent, medium was removed and cells were washed with serum free media, trypsinized, harvested and washed with serum free media for three times by centrifuge. After final washing, cells were counted and mixed with matrigel at 1:1 ration in volume. Cells were suspended in a volume that 200 PI contains required number of cells per injection.
Preparation of Mice • 1. Mice should be 4-6 weeks old. • 2. Allow 3-5 days acclimatization period after mice have arrived.
Preparation of the Injection • 1. Clean and sterilize the inoculation area of the mice with iodine solutions and ethanol. • 2. Take cells with 1-cc syringe. • 3. Inject cells (1×10^7) with 27 gauge needles subcutaneously (s.c.) into the lower flank of the mice. • 4. Therapy was started after 1 week when the tumors have reached an average volume of ˜250 mm^3. • 5. Tumor diameters are measured with digital calipers, and the tumor volume in mm^3 is calculated by the formula: Volume=(width)^2×length/2
Treatment • 1. Compound 22 and Compound 28 were dissolved in water at concentration of 5 mg/ml and diluted to working solution with D5W before injection. Compound 16 was administered at 20 mg/kg in a mixture of 5% ethanol-5% cremaphor-90% saline. • 2. Each tumor bearing mouse was injected with Compound 22 at 20 mg/kg, Compound 28 at 20 mg/kg or at 10 mg/kg, or Compound 16 at 20 mg/kg via tail vein and continually injected with the same method for a total of 6 times, on days 7, 9, 11, 14, 16, and 18 post tumor-cell injection.

microtubule assembly = details: Cruz-Monserrate et al., Mol. Pharmacol., 2003; cited from earlier work
HCT-116 cells = details: a human colorectal carcinoma line; cited from earlier work
[3] = stability of aqueous solution at room temperature; assay type: physicochemical
Method: To the combined filtration above was added a stock solution of NaOH in water (14.4 mg/mL, 1 mL, 0.360 mmol). The resulting solution was concentrated to remove most of MeOH at room temperature. Then the residue was diluted with DI water (100 mL). This solution was filtered through a syringe filter (0.45 um) to remove tiny particles. The filtrate was lyophilized to afford the desired compound monosodium salt, 31 (285 mg, 97% yield for two steps).

[4] = de-ionized (DI) water at 25° C., read-out: water solubility

Question: Which results are given for `CC(C)[C@@H]1NC(=O)[C@@H](NC(=O)[C@@H](OP(=O)([O-])O)C(C)C)Cc2ccc3c(c2)[C@]24C5=C(N=C1O5)c1ncc(o1)-c1c[nH]c5cccc(c15)-c1cccc2c1NC4O3.[Na+]` (stereo partly drawn) [Compound 23]?
Answer: amount shown to dissolve in 1 mL of de-ionized water ([1]; 1 mL of de-ionized water): 5 mg; solubility [1, 4]: > 1000 µg/mL

Question: With `CC(C)C1NC(=O)[C@@H](NC(=O)[C@@H](O)C(C)C)Cc2ccc3c(c2)C24C5=C(N=C1O5)c1ncc(o1)-c1c[nH]c5cccc(c15)-c1cccc2c1N[C@H]4O3` (stereo partly drawn) [Compound 16] as the compound, how does the tumor free animals [2] read?
Answer: no tumor free animals

Question: Which solubility [1, 4] does the source give for `CCC(O)(CC)C(=O)N[C@H]1Cc2ccc3c(c2)C24C5=C(N=C(O5)[C@H](C(C)C)NC1=O)c1ncc(o1)-c1c[nH]c5c(OP(=O)([O-])[O-])ccc(c15)-c1cccc2c1NC4O3.[Na+].[Na+]` (stereo partly drawn) [Compound 38] here?
Answer: > 1000 µg/mL

Question: For `CC(C)[C@H](O)C(=O)NC1Cc2ccc3c(c2)[C@]24C5=C(N=C(O5)[C@H](C(C)C)NC1=O)c1nc(Cl)c(o1)-c1c(Cl)[nH]c5cccc(c15)-c1cccc2c1NC4O3` (stereo partly drawn) [Diazonamide A], which “inhibition of microtubule assembly” value (microtubule assembly) is on record?
Answer: inhibit microtubule assembly

Question: What about the “GI50 values (50% growth inhibitory concentration)” value (HCT-116 cells) of the same compound?
Answer: less than 15 ng/ml

Question: With `CC(C)[C@@H]1NC(=O)[C@@H](NC(=O)[C@@H](OP(=O)(O)O)C(C)C)Cc2ccc3c(c2)[C@]24C5=C(N=C1O5)c1ncc(o1)-c1c[nH]c5cccc(c15)-c1cccc2c1NC4O3` (stereo partly drawn) [Compound 22] as the compound, how does the tumor free animals [2] read?
Answer: no tumor free animals

Question: And the “weight loss in the treated group” value [2]?
Answer: No weight loss

Question: What about the solubility [1, 4] of the same compound?
Answer: > 1000 µg/mL

Question: For `CCC(O)(CC)C(=O)N[C@H]1Cc2ccc3c(c2)[C@]24C5=C(N=C(O5)[C@H](C(C)C)NC1=O)c1ncc(o1)-c1cn(P(=O)(O)O)c5cccc(c15)-c1cccc2c1NC4O3` (stereo partly drawn) [Compound 30], which solubility [1, 4] is on record?
Answer: > 1000 µg/mL

Question: With `CCC(O)(CC)C(=O)N[C@H]1Cc2ccc3c(c2)[C@]24C5=C(N=C(O5)[C@H](C(C)C)NC1=O)c1ncc(o1)-c1cn(P(=O)([O-])O)c5cccc(c15)-c1cccc2c1NC4O3.[Na+]` (stereo partly drawn) [Compound 31] as the compound, how does the solubility [1, 4] read?
Answer: > 1000 µg/mL

Question: And the solubility ([1]; water, 25 °C, water, read-out: solubility in water)?
Answer: 20000 µg/mL

Question: What about the “time for which the aqueous solution is stable” value [3] of the same compound?
Answer: more than 48 hours

Question: With `CCC(O)(CC)C(=O)N[C@H]1Cc2ccc3c(c2)C24C5=C(N=C(O5)[C@H](C(C)C)NC1=O)c1ncc(o1)-c1c[nH]c5c(OP(=O)(O)O)ccc(c15)-c1cccc2c1NC4O3` (stereo partly drawn) [Compound 37] as the compound, how does the solubility [1, 4] read?
Answer: > 1000 µg/mL

Question: For `CC(C)[C@H](O)C(=O)N[C@H]1Cc2ccc3c(c2)[C@]24C5=C(N=C(O5)[C@H](C(C)C)NC1=O)c1ncc(o1)-c1cn(P(=O)(O)O)c5cccc(c15)-c1cccc2c1NC4O3` (stereo partly drawn) [Compound 28], which solubility [1, 4] is on record?
Answer: > 1000 µg/mL
